Source: the NIST ThermoML archive (doi:10.1021/je100083w)
Numbers after ± are expanded uncertainties.

Conditions: Liquid, Bellows volumetry

O [water]
Conditions	specific volume [m3/kg]
273.67 K, 199000 kPa	0.0009252 ± 5e-07
273.68 K, 348800 kPa	0.0008889 ± 5e-07
273.74 K, 298900 kPa	0.0009003 ± 5e-07
273.82 K, 350400 kPa	0.0008893 ± 5e-07
283.33 K, 199000 kPa	0.000928 ± 5e-07
283.36 K, 69000 kPa	0.0009704 ± 5e-07
283.39 K, 298700 kPa	0.0009035 ± 5e-07
283.43 K, 249000 kPa	0.000915 ± 5e-07
283.43 K, 349100 kPa	0.0008928 ± 5e-07
283.47 K, 199000 kPa	0.0009281 ± 5e-07
283.48 K, 149100 kPa	0.0009425 ± 5e-07
283.49 K, 149300 kPa	0.0009423 ± 5e-07
283.5 K, 69200 kPa	0.0009702 ± 5e-07
283.5 K, 248900 kPa	0.0009152 ± 5e-07
283.51 K, 98900 kPa	0.0009592 ± 5e-07
283.51 K, 99000 kPa	0.0009591 ± 5e-07
283.52 K, 148800 kPa	0.0009426 ± 5e-07
283.53 K, 198900 kPa	0.000928 ± 5e-07
283.54 K, 69000 kPa	0.0009703 ± 5e-07
283.54 K, 249100 kPa	0.0009148 ± 5e-07
283.56 K, 299300 kPa	0.0009032 ± 5e-07
283.6 K, 299000 kPa	0.0009038 ± 5e-07
283.62 K, 349300 kPa	0.0008926 ± 5e-07
283.7 K, 99000 kPa	0.0009592 ± 5e-07
283.72 K, 348000 kPa	0.0008941 ± 5e-07
293.2 K, 249000 kPa	0.0009188 ± 5e-07
293.22 K, 299000 kPa	0.0009073 ± 5e-07
293.23 K, 149200 kPa	0.0009458 ± 5e-07
293.25 K, 199000 kPa	0.0009316 ± 5e-07
293.28 K, 99300 kPa	0.0009619 ± 5e-07
293.31 K, 349200 kPa	0.000897 ± 5e-07
293.34 K, 349300 kPa	0.0008968 ± 5e-07
293.35 K, 69300 kPa	0.0009728 ± 5e-07
293.38 K, 299400 kPa	0.0009073 ± 5e-07
293.39 K, 199400 kPa	0.0009315 ± 5e-07
293.39 K, 249000 kPa	0.0009189 ± 5e-07
293.4 K, 99100 kPa	0.000962 ± 5e-07
293.41 K, 149100 kPa	0.0009458 ± 5e-07
293.42 K, 68900 kPa	0.0009729 ± 5e-07
293.46 K, 199100 kPa	0.0009322 ± 5e-07
293.47 K, 99200 kPa	0.0009625 ± 5e-07
293.49 K, 148800 kPa	0.0009465 ± 5e-07
293.5 K, 100 kPa	0.001002 ± 5e-07
293.52 K, 248900 kPa	0.0009196 ± 5e-07
293.53 K, 100 kPa	0.001002 ± 5e-07
293.53 K, 349200 kPa	0.0008974 ± 5e-07
293.54 K, 299000 kPa	0.000908 ± 5e-07
293.55 K, 100 kPa	0.001002 ± 5e-07
293.6 K, 69200 kPa	0.0009732 ± 5e-07
303.35 K, 98500 kPa	0.0009655 ± 5e-07
303.37 K, 69200 kPa	0.0009758 ± 5e-07
303.4 K, 98900 kPa	0.0009651 ± 5e-07
303.4 K, 148900 kPa	0.000949 ± 5e-07
303.41 K, 198900 kPa	0.0009347 ± 5e-07
303.42 K, 68900 kPa	0.0009761 ± 5e-07
303.42 K, 69800 kPa	0.0009757 ± 5e-07
303.43 K, 248900 kPa	0.000922 ± 5e-07
303.48 K, 99200 kPa	0.0009653 ± 5e-07
303.48 K, 149000 kPa	0.0009492 ± 5e-07
303.49 K, 299100 kPa	0.0009104 ± 5e-07
303.51 K, 149100 kPa	0.0009494 ± 5e-07
303.52 K, 349300 kPa	0.0008999 ± 5e-07
303.55 K, 299100 kPa	0.000911 ± 5e-07
303.56 K, 199000 kPa	0.000935 ± 5e-07
303.57 K, 198800 kPa	0.0009353 ± 5e-07
303.57 K, 248800 kPa	0.0009226 ± 5e-07
303.57 K, 249300 kPa	0.0009222 ± 5e-07
303.61 K, 299200 kPa	0.0009108 ± 5e-07
303.63 K, 349200 kPa	0.0009004 ± 5e-07
303.72 K, 349100 kPa	0.0009003 ± 5e-07
313.38 K, 149300 kPa	0.0009528 ± 5e-07
313.38 K, 349300 kPa	0.0009051 ± 5e-07
313.39 K, 69100 kPa	0.0009801 ± 5e-07
313.39 K, 98800 kPa	0.000969 ± 5e-07
313.39 K, 148800 kPa	0.0009534 ± 5e-07
313.4 K, 69100 kPa	0.0009799 ± 5e-07
313.4 K, 98600 kPa	0.0009695 ± 5e-07
313.4 K, 199200 kPa	0.0009386 ± 5e-07
313.41 K, 99000 kPa	0.0009696 ± 5e-07
313.42 K, 149000 kPa	0.0009538 ± 5e-07
313.42 K, 198900 kPa	0.0009393 ± 5e-07
313.43 K, 69000 kPa	0.0009796 ± 5e-07
313.44 K, 249300 kPa	0.0009265 ± 5e-07
313.44 K, 299600 kPa	0.0009155 ± 5e-07
313.44 K, 348900 kPa	0.000904 ± 5e-07
313.45 K, 248900 kPa	0.0009271 ± 5e-07
313.46 K, 199100 kPa	0.0009397 ± 5e-07
313.46 K, 249200 kPa	0.0009259 ± 5e-07
313.46 K, 299400 kPa	0.0009151 ± 5e-07
313.46 K, 349500 kPa	0.0009046 ± 5e-07
313.48 K, 299700 kPa	0.0009144 ± 5e-07
323.04 K, 248700 kPa	0.0009318 ± 5e-07
323.09 K, 198800 kPa	0.0009435 ± 5e-07
323.13 K, 299200 kPa	0.0009196 ± 5e-07
323.17 K, 249000 kPa	0.0009307 ± 5e-07
323.17 K, 349400 kPa	0.0009091 ± 5e-07
323.19 K, 299100 kPa	0.0009191 ± 5e-07
323.21 K, 349000 kPa	0.0009095 ± 5e-07
323.25 K, 248900 kPa	0.0009312 ± 5e-07
323.26 K, 298400 kPa	0.0009203 ± 5e-07
323.28 K, 199000 kPa	0.0009438 ± 5e-07
323.3 K, 149300 kPa	0.0009578 ± 5e-07
323.31 K, 99100 kPa	0.0009737 ± 5e-07
323.33 K, 69200 kPa	0.0009842 ± 5e-07
323.34 K, 198300 kPa	0.0009446 ± 5e-07
323.34 K, 349300 kPa	0.0009085 ± 5e-07
323.35 K, 68300 kPa	0.0009846 ± 5e-07
323.35 K, 149000 kPa	0.0009578 ± 5e-07
323.37 K, 99600 kPa	0.0009736 ± 5e-07
323.41 K, 149200 kPa	0.0009584 ± 5e-07
323.43 K, 99200 kPa	0.0009742 ± 5e-07
323.46 K, 68800 kPa	0.0009848 ± 5e-07
